Our source for the inhibition values is patent publication US8686150B2 (Sanofi, priority 2011, dated 2014).

This test concerns the target T1, human full-length recombinant PKC βII (Homo sapiens, UniProt P05771).
T1 construct: Active human full-length recombinant PKC βII; purchased Invitrogen GmbH, Darmstadt, Germany
Nature of the test: Determination of PKC βII inhibition (Caliper mobility-shift kinase assay, Fluorescein-RFARKGSLRQKNV peptide substrate). Format: biochemical. The settings on record: example compounds at a final concentration of 1.14 μM (±0.15 μM). The gist of the method: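 Full-length PKC βII (30 ng/ml in pre-dilution) with PS/DAG/Ca2+ activators, pH 7.4; fluorescein peptide and ATP at 3 μM and 120 μM before mixing. Reaction ran 60 min at 32 °C, was EDTA-stopped, and was read by mobility shift. % inhibition came from product/(substrate+product) peak heights, tested at 1.14 μM final.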

T1 sequence (P05771 1-673 isoform P05771-2): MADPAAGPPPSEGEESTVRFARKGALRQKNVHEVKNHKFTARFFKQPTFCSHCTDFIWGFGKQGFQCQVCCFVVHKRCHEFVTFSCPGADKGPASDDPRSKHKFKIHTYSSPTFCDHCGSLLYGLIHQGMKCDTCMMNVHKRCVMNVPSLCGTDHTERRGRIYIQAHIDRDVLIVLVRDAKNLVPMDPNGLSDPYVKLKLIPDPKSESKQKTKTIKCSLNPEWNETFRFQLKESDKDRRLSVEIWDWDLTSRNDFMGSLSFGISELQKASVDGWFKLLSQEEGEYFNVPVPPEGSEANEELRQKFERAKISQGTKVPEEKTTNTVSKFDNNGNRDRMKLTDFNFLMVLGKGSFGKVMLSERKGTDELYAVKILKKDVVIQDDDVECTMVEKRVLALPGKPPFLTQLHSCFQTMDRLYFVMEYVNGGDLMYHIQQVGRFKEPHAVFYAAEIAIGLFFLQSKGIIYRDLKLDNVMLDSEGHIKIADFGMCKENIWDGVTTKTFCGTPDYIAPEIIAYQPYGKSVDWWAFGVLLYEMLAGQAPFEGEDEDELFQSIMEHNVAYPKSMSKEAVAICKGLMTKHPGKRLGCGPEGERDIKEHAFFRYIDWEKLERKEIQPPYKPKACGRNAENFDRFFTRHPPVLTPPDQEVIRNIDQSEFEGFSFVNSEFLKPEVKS

In general, inhibition refers to how much of the control response was suppressed. For `Cc1n[nH]c2nc(-c3ccc(O)cc3)cc(C(=O)N(C)C3CCN(C)CC3)c12` [Example 272, 6-(4-Hydroxy-phenyl)-3-methyl-1H-pyrazolo[3,4-b]pyridine-4-carboxylic acid methyl-(1-methyl-piperidin-4-yl)-amide], the inhibition at 1.14 µM is 85%.
With `CCN1CCCC(NC(=O)c2cc(-c3ccc(O)cc3)nc3[nH]nc(C)c23)C1` (stereo not shown) [Example 273, 6-(4-Hydroxy-phenyl)-3-methyl-1H-pyrazolo[3,4-b]pyridine-4-carboxylic acid (1-ethyl-piperidin-3-yl)-amide], the inhibition at 1.14 µM was 83%.
In the case of `Cc1n[nH]c2nc(-c3ccc(O)cc3)cc(C(=O)N3C[C@]4(C)CN(C)C[C@](C)(C3)C4O)c12` (stereo partly drawn) [Example 274, [6-(4-Hydroxy-phenyl)-3-methyl-1H-pyrazolo[3,4-b]pyridin-4-yl]-((1S,5R)-9-hydroxy-1,5,7-trimethyl-3,7-diaza-bicyclo[3.3.1]non-3-yl)-methanone], the inhibition at 1.14 µM came to 88%.
In the case of `Cc1n[nH]c2nc(-c3ccc(O)cc3)cc(C(=O)NC3CCCN(C)C3)c12` (stereo not shown) [Example 275, 6-(4-Hydroxy-phenyl)-3-methyl-1H-pyrazolo[3,4-b]pyridine-4-carboxylic acid (1-methyl-piperidin-3-yl)-amide], the inhibition at 1.14 µM came out at 89%.
Then `Cc1n[nH]c2nc(-c3ccc(O)cc3)cc(C(=O)NC3CC(C)(C)N(C)C(C)(C)C3)c12` [Example 276, 6-(4-Hydroxy-phenyl)-3-methyl-1H-pyrazolo[3,4-b]pyridine-4-carboxylic acid (1,2,2,6,6-pentamethyl-piperidin-4-yl)-amide], with 66%.
On to `CC(=O)N1CCC(NC(=O)c2cc(-c3ccc(O)cc3)nc3[nH]nc(C)c23)CC1` [Example 277, 6-(4-Hydroxy-phenyl)-3-methyl-1H-pyrazolo[3,4-b]pyridine-4-carboxylic acid (1-acetyl-piperidin-4-yl)-amide], for which the inhibition at 1.14 µM was determined as 35%.
As to `Cc1n[nH]c2nc(-c3ccc(O)cc3)cc(C(=O)NCC3CCC(=O)N3)c12` (stereo not shown) [Example 278, 6-(4-Hydroxy-phenyl)-3-methyl-1H-pyrazolo[3,4-b]pyridine-4-carboxylic acid (5-oxo-pyrrolidin-2-ylmethyl)-amide], the inhibition at 1.14 µM stood at 68%.
As to `Cc1n[nH]c2nc(-c3ccc(O)cc3)cc(C(=O)NC3CCN(C4CCCCC4)CC3)c12` [Example 279, 6-(4-Hydroxy-phenyl)-3-methyl-1H-pyrazolo[3,4-b]pyridine-4-carboxylic acid (1-cyclohexyl-piperidin-4-yl)-amide], the inhibition at 1.14 µM was determined as 78%.
For `Cc1n[nH]c2nc(-c3ccc(O)cc3)cc(C(=O)N3CCN(C(=O)C4CCCO4)CC3)c12` (stereo not shown) [Example 280, [6-(4-Hydroxy-phenyl)-3-methyl-1H-pyrazolo[3,4-b]pyridin-4-yl]-[4-(tetrahydro-furan-2-carbonyl)-piperazin-1-yl]-methanone] the value was 88%; for `CCN1CCCN(C(=O)c2cc(-c3ccc(O)cc3)nc3[nH]nc(C)c23)CC1` [Example 281, (4-Ethyl-[1,4]diazepan-1-yl)-[6-(4-hydroxy-phenyl)-3-methyl-1H-pyrazolo[3,4-b]pyridin-4-yl]-methanone], 85%.
Turning to `Cc1n[nH]c2nc(-c3ccc(O)cc3)cc(C(=O)N3CC4CCCN4CC3c3ccccc3)c12` (stereo not shown) [Example 282, [6-(4-Hydroxy-phenyl)-3-methyl-1H-pyrazolo[3,4-b]pyridin-4-yl]-(3-phenyl-hexahydro-pyrrolo[1,2-a]pyrazin-2-yl)-methanone], the inhibition at 1.14 µM was 73%.
Then `COC(=O)C1(N)CCN(C(=O)c2cc(-c3ccc(O)cc3)nc3[nH]nc(C)c23)CC1` [Example 283, 4-Amino-1-[6-(4-hydroxy-phenyl)-3-methyl-1H-pyrazolo[3,4-b]pyridine-4-carbonyl]-piperidine-4-carboxylic acid methyl ester], with 45%.
Take `Cc1n[nH]c2nc(-c3ccc(O)cc3)cc(C(=O)N3CC4CCCN4CC3C)c12` (stereo not shown) [Example 284, [6-(4-Hydroxy-phenyl)-3-methyl-1H-pyrazolo[3,4-b]pyridin-4-yl]-(3-methyl-hexahydro-pyrrolo[1,2-a]pyrazin-2-yl)-methanone]: the inhibition at 1.14 µM stood at 66%.
In the case of `Cc1n[nH]c2nc(-c3ccc(O)cc3)cc(C(=O)N3CC4CCCCN4CC3C)c12` (stereo not shown) [Example 285, [6-(4-Hydroxy-phenyl)-3-methyl-1H-pyrazolo[3,4-b]pyridin-4-yl]-(3-methyl-octahydro-pyrido[1,2-a]pyrazin-2-yl)-methanone], the inhibition at 1.14 µM came out at 76%.
For `Cc1n[nH]c2nc(-c3ccc(O)cc3)cc(C(=O)NCC(C)(CN3CCCC3)c3ccccn3)c12` (stereo not shown) [Example 286, 6-(4-Hydroxy-phenyl)-3-methyl-1H-pyrazolo[3,4-b]pyridine-4-carboxylic acid (2-methyl-2-pyridin-2-yl-3-pyrrolidin-1-yl-propyl)-amide] the value was 62%; for `Cc1n[nH]c2nc(-c3ccc(O)cc3)cc(C(=O)N3CCC(CN4CCCCC4)CC3)c12` [Example 287, [6-(4-Hydroxy-phenyl)-3-methyl-1H-pyrazolo[3,4-b]pyridin-4-yl]-(4-piperidin-1-ylmethyl-piperidin-1-yl)-methanone], 34%; for `Cc1n[nH]c2nc(-c3ccc(O)c(F)c3)cc(C(=O)NC3CC4(CC(N)C4)C3)c12` (stereo not shown) [Example 288, 6-(3-Fluoro-4-hydroxy-phenyl)-3-methyl-1H-pyrazolo[3,4-b]pyridine-4-carboxylic acid (6-amino-spiro[3.3]hept-2-yl)-amide], 59%.
For `Cc1n[nH]c2nc(-c3ccc(O)c(F)c3)cc(C(=O)N3CC4CNCC4C3)c12` (stereo not shown) [Example 289, [6-(3-Fluoro-4-hydroxy-phenyl)-3-methyl-1H-pyrazolo[3,4-b]pyridin-4-yl]-(hexahydro-pyrrolo[3,4-c]pyrrol-2-yl)-methanone] the value was 84%; for `Cc1n[nH]c2nc(-c3ccc(O)c(F)c3)cc(C(=O)N3CCN[C@@H](C)C3)c12` [Example 290, [6-(3-Fluoro-4-hydroxy-phenyl)-3-methyl-1H-pyrazolo[3,4-b]pyridin-4-yl]-((S)-3-methyl-piperazin-1-yl)-methanone], 96%; for `CCC[C@@H]1CN(C(=O)c2cc(-c3ccc(O)c(F)c3)nc3[nH]nc(C)c23)CCN1` [Example 291, [6-(3-Fluoro-4-hydroxy-phenyl)-3-methyl-1H-pyrazolo[3,4-b]pyridin-4-yl]-((R)-3-propyl-piperazin-1-yl)-methanone], 89%.
For `Cc1n[nH]c2nc(-c3ccc(O)c(F)c3)cc(C(=O)N3CC[C@H](N)C3)c12` [Example 292, ((S)-3-Amino-pyrrolidin-1-yl)-[6-(3-fluoro-4-hydroxy-phenyl)-3-methyl-1H-pyrazolo[3,4-b]pyridin-4-yl]-methanone] the value was 77%; for `CCC[C@H]1CN(C(=O)c2cc(-c3ccc(O)c(F)c3)nc3[nH]nc(C)c23)CCN1` [Example 293, [6-(3-Fluoro-4-hydroxy-phenyl)-3-methyl-1H-pyrazolo[3,4-b]pyridin-4-yl]-((S)-3-propyl-piperazin-1-yl)-methanone], 89%.
